# Data as given in the supplement of paper PMC10307832.
# Tests used:
# Assay in all cases: relative viability (nuclei count vs DMSO), 5 days (fraction); higher = more cells survive
# Quizartinib + Dasatinib = compound: CC(C)(C)c1cc(NC(=O)Nc2ccc(-c3cn4c(n3)sc3cc(OCCN5CCOCC5)ccc34)cc2)no1 [Quizartinib] + Cc1nc(Nc2ncc(C(=O)Nc3c(C)cccc3Cl)s2)cc(N2CCN(CCO)CC2)n1 [Dasatinib] (partner 0.075 µM)
# Method in brief: (§1)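 Lung cancer cell lines in 1536-well plates got either a single drug or a fixed anchor-drug dose together with five library-drug doses (not always all listed) in √10 steps, by pin tool, on the day after seeding. Nuclei were counted after 5 days, and relative viability is the treated-to-vehicle ratio of nuclei counts. Values are medians of duplicate plates.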
# YM155 + Foretinib = compound: COCC[n+]1c2c(n(Cc3cnccn3)c1C)C(=O)c1ccccc1C2=O [YM155] + COc1cc2c(Oc3ccc(NC(=O)C4(C(=O)Nc5ccc(F)cc5)CC4)cc3F)ccnc2cc1OCCCN1CCOCC1 [Foretinib] (partner 0.25 µM)
# Method in brief: as §1
# Quizartinib + Alpelisib = compound: CC(C)(C)c1cc(NC(=O)Nc2ccc(-c3cn4c(n3)sc3cc(OCCN5CCOCC5)ccc34)cc2)no1 [Quizartinib] + Cc1nc(NC(=O)N2CCC[C@H]2C(N)=O)sc1-c1ccnc(C(C)(C)C(F)(F)F)c1 [Alpelisib] (partner 2 µM)
# Method in brief: as §1
# YM155 + Crizotinib = compound: COCC[n+]1c2c(n(Cc3cnccn3)c1C)C(=O)c1ccccc1C2=O [YM155] + C[C@@H](Oc1cc(-c2cnn(C3CCNCC3)c2)cnc1N)c1c(Cl)ccc(F)c1Cl [Crizotinib] (partner 1 µM)
# Method in brief: as §1
Cell Line,relative viability (Quizartinib + Dasatinib; first compound 0.001 µM),relative viability (Quizartinib + Dasatinib; first compound 0.003162 µM),relative viability (Quizartinib + Dasatinib; first compound 0.01 µM),relative viability (Quizartinib + Dasatinib; first compound 0.03162 µM),relative viability (Quizartinib + Dasatinib; first compound 0.1 µM),relative viability (YM155 + Foretinib; first compound 0.002 µM),relative viability (YM155 + Foretinib; first compound 0.006325 µM),relative viability (YM155 + Foretinib; first compound 0.02 µM),relative viability (YM155 + Foretinib; first compound 0.06325 µM),relative viability (Quizartinib + Alpelisib; first compound 0.001 µM),relative viability (Quizartinib + Alpelisib; first compound 0.003162 µM),relative viability (Quizartinib + Alpelisib; first compound 0.01 µM),relative viability (Quizartinib + Alpelisib; first compound 0.03162 µM),relative viability (Quizartinib + Alpelisib; first compound 0.1 µM),relative viability (YM155 + Crizotinib; first compound 0.002 µM),relative viability (YM155 + Crizotinib; first compound 0.006325 µM),relative viability (YM155 + Crizotinib; first compound 0.02 µM),relative viability (YM155 + Crizotinib; first compound 0.06325 µM)
NCI-H2342,0.31,0.314,0.308,0.285,0.316,1,1.14,1.14,1.03,–,–,–,–,–,–,–,–,–
CAL-12T,0.382,0.489,0.535,0.388,0.328,1.14,1.16,0.928,0.587,1.03,1.08,1.29,0.467,1.47,0.608,0.696,0.551,0.409
NCI-H1395,0.384,0.418,0.388,0.421,0.413,0.943,0.91,0.984,1.01,1.05,1.01,1.21,1.06,0.995,–,–,–,–
NCI-H1299,–,–,–,–,–,1.12,1.07,1.16,1.04,–,1.01,1.11,1.06,0.986,0.92,0.953,0.951,0.767
NCI-H1703,–,–,–,–,–,0.309,0.355,0.381,0.276,0.34,0.196,0.209,0.182,0.22,0.612,0.13,0.459,0.175
HCC-15,–,0.58,0.594,–,0.6,0.992,1.05,0.888,0.515,0.833,0.881,0.941,0.884,0.787,0.747,0.887,0.815,0.711
SW 900,0.557,0.294,–,0.563,0.616,0.874,0.622,1.15,0.905,–,–,–,–,–,–,–,–,–
NCI-H661,0.756,0.896,1.09,0.837,0.887,1.03,1.02,1.03,0.494,0.594,0.708,0.384,0.565,0.905,1.01,0.942,1.05,0.798
NCI-H647,0.173,0.181,0.178,0.199,0.185,1.21,1.11,0.981,0.474,1.01,1.06,1.25,1.13,1.33,1.08,1.31,1.12,0.755
H3255,0.414,0.347,0.366,0.346,0.345,0.917,0.896,0.998,1.07,0.55,0.619,0.795,0.63,0.797,0.836,0.874,0.87,0.874
NCI-H2405,0.266,0.198,0.216,0.202,0.244,1.04,1.03,0.936,0.64,0.579,0.748,0.847,0.733,0.978,0.8,0.82,0.831,0.644
NCI-H1793,0.357,0.381,0.356,0.392,0.327,0.626,0.875,0.675,0.79,0.588,0.875,0.788,0.731,0.798,–,–,–,–
EBC-1,–,–,–,–,–,0.0935,0.0954,0.0823,0.089,0.664,0.708,0.89,0.915,0.812,0.186,0.193,0.206,0.202
IA-LM,–,–,–,–,–,1.15,1.03,1.33,0.975,0.695,0.761,0.808,0.789,0.844,0.825,0.766,0.685,0.548
HCC-44,–,–,–,–,–,–,–,–,–,0.798,0.78,0.864,0.825,0.638,0.805,0.755,0.845,0.776
NCI-H522,0.861,0.861,1.11,0.794,0.882,–,–,–,–,–,–,–,–,–,–,–,–,–
NCI-H1792,–,0.742,0.84,0.658,0.836,–,–,–,–,0.799,0.667,0.711,0.499,0.703,1,1.05,0.994,0.984
A549,–,–,–,–,–,0.923,0.932,1.1,0.624,0.661,0.763,0.849,–,0.833,0.717,0.592,0.654,0.142
NCI-H1623,0.502,0.627,0.507,0.623,0.598,0.89,0.865,0.987,0.872,–,–,–,–,–,–,–,–,–
NCI-H1650,0.283,0.328,0.298,–,0.245,1.07,1.11,0.932,0.57,–,–,–,–,–,0.924,0.974,0.717,0.286
Calu-6,–,–,–,–,–,0.882,0.845,0.727,0.0962,0.92,0.915,1,0.761,0.947,0.728,0.776,0.349,0.135
ChaGo-K-1,0.595,0.543,0.588,0.606,0.56,0.854,0.984,0.926,0.854,–,–,–,–,–,1.1,1.06,1.17,0.784
